Reference: publication PMC7583898, “Novel Harmicines with Improved Potency against Plasmodium” (Molecules, 2020)
Read-outs that look alike come from different tables or passages of the source.

Legend:
[1] = test system: P. falciparum erythrocytic stage, PfDd2 (chloroquine-resistant) strain; experiment: In vitro drug sensitivity assay against erythrocytic stage of P. falciparum, PfDd2 strain (HRP2-ELISA); type: cell-based; conditions: Plasmodium falciparum, mean ± SD
Method: (§1) The antiplasmodial activity of harmicines 5 and 6 was evaluated against two laboratory P. falciparum strains (3D7 – CQ-sensitive, and Dd2 – CQ-resistant), as previously described, using the histidine-rich protein 2 (HRP2) assay. […] After three days of incubation at 37 °C, 5% CO2 and 5% oxygen, plates were frozen until analyzed by HRP2-ELISA. All compounds were evaluated in duplicate in at least two independent experiments. The IC50 was determined by nonlinear regression analysis of log concentration–response curves using the drc package v0.9.0 of R v2.6.1 [22].

[2] = test system: P. falciparum erythrocytic stage, Pf3D7 (chloroquine-sensitive) strain; experiment: In vitro drug sensitivity assay against erythrocytic stage of P. falciparum, Pf3D7 strain (HRP2-ELISA); type: cell-based; conditions: Plasmodium falciparum, mean ± SD
Method: as §1

[3] = test system: human liver hepatocellular carcinoma cell line (HepG2); experiment: In vitro cytotoxicity assay (neutral red); type: cell-based; conditions: for IC50: Homo sapiens, HepG2, 24 h, neutral red, one day incubation, mean ± SD; for SI, selectivity index: ratio between IC50 (HepG2) and IC50 (Pf3D7)
Method: A cytotoxicity assay was performed using the neutral red assay, as described previously, against human liver hepatocellular carcinoma cell line (HepG2) (Table 1). For the safety assessment, a selectivity index (SI) for each compound was calculated as the fractional ratio between the IC50 values for HepG2 and P. falciparum Pf3D7 strain (Table 2). In general, N-harmicines 5 are less cytotoxic than O-harmicines 6, which is in agreement with the results obtained for triazole-type harmicines. Furthermore, all N-harmicines, but only two O-harmicines, 6d and 6f, have more favorable SIs than the parent compound harmine (SI = 30). […] Compound 5b, with a m-fluorine substituent in the cinnamic scaffold, exerted the highest selectivity (SI = 773), followed by 5a, an amide with unsubstituted cinnamic acid (SI = 715).
Cytotoxicity against a human cell line (HepG2) was evaluated using the neutral red assay. In brief, human cells were seeded to a 96 well plate in complete culture medium, before on the following day a serial dilution of the respective compound was added. After one day of incubation, cytotoxicity was evaluated by the addition of Neutral Red, subsequent lysis of cells and the measurement of absorbance in a plate reader. The IC50 was determined as for the in vitro drug assay against P. falciparum. To assess the safety of a compound, SI was calculated as the fractional ratio between the IC50 values for HepG2 and the P. falciparum 3D7 strain.

[4] = test system: P. falciparum erythrocytic stage, PfDd2 (chloroquine-resistant) strain; conditions: ref [15]; cited from earlier work
[5] = test system: P. falciparum erythrocytic stage, Pf3D7 (chloroquine-sensitive) strain; set-up: method as in PMID 31812035; conditions: ref [15]; cited from earlier work
[6] = test system: human liver hepatocellular carcinoma cell line (HepG2); set-up: method as in PMID 31812035; conditions: ref [15]; cited from earlier work

| SMILES | IC50 [1] [nM] | IC50 [2] [nM] | IC50 [3] [nM] | SI, selectivity index [3] | IC50 [4] [nM] | IC50 [5] [nM] | IC50 [6] [nM] |
| --- | --- | --- | --- | --- | --- | --- | --- |
| COc1ccc2c3ccnc(C)c3n(CCNC(=O)/C=C/c3cccc(Br)c3)c2c1 [5c, (E)-3-(3-bromophenyl)-N-(2-(7-methoxy-1-methyl-9H-pyrido[3,4-b]indol-9-yl)ethyl)acrylamide] | 410 ± 10 | 70 ± 30 | 2880 ± 420 | 41 | – | – | – |
| COc1ccc2c3ccnc(C)c3n(CCNC(=O)C=Cc3ccccc3)c2c1 [5a, N-(2-(7-methoxy-1-methyl-9H-pyrido[3,4-b]indol-9-yl)ethyl)cinnamamide] | 1110 ± 150 | 490 ± 250 | 350000 ± 13000 | 715 | – | – | – |
| CCN(CC)CCCC(C)Nc1ccnc2cc(Cl)ccc12 (stereo not drawn) [CQ, chloroquine] | – | – | – | – | 200 ± 100 | 3 ± 2 | – |
| COc1ccc2c3ccnc(C)c3n(CCNC(=O)/C=C/c3ccc(F)cc3)c2c1 [5d, (E)-3-(4-fluorophenyl)-N-(2-(7-methoxy-1-methyl-9H-pyrido[3,4-b]indol-9-yl)ethyl)acrylamide] | 330 ± 110 | 90 ± 60 | 21000 ± 880 | 233 | – | – | – |
| COc1ccc(/C=C/C(=O)NCCn2c3cc(OC)ccc3c3ccnc(C)c32)cc1 [5f, (E)-N-(2-(7-methoxy-1-methyl-9H-pyrido[3,4-b]indol-9-yl)ethyl)-3-(4-methoxyphenyl)acrylamide] | 490 ± 240 | 260 ± 1 | 74700 ± 7610 | 287 | – | – | – |
| COc1ccc2c3ccnc(C)c3n(CCNC(=O)/C=C/c3cccc(F)c3)c2c1 [5b, (E)-3-(3-fluorophenyl)-N-(2-(7-methoxy-1-methyl-9H-pyrido[3,4-b]indol-9-yl)ethyl)acrylamide] | 780 ± 320 | 70 ± 30 | 54100 ± 13400 | 773 | – | – | – |
| COc1ccc2c3ccnc(C)c3n(CCNC(=O)/C=C/c3ccc(Cl)cc3)c2c1 [5e, (E)-3-(4-chlorophenyl)-N-(2-(7-methoxy-1-methyl-9H-pyrido[3,4-b]indol-9-yl)ethyl)acrylamide] | 170 ± 10 | 40 ± 20 | 2910 ± 1750 | 73 | – | – | – |
| COc1ccc2c(c1)[nH]c1c(C)nccc12 [Harmine, harmine] | – | – | – | – | > 27700 | – | > 250000 |

More lines, main results first:

| IC50 [1] [nM] | IC50 [2] [nM] | SMILES | IC50 [3] [nM] | SI, selectivity index [3] | IC50 [4] [nM] | IC50 [5] [nM] | IC50 [6] [nM] |
| --- | --- | --- | --- | --- | --- | --- | --- |
| 4700 ± 2650 | 980 ± 120 | Cc1nccc2c1[nH]c1cc(OCCNC(=O)C=Cc3ccccc3)ccc12 [6a, N-(2-((1-methyl-9H-pyrido[3,4-b]indol-7-yl)oxy)ethyl)cinnamamide] | 12700 ± 660 | 13 | – | – | – |
| 400 ± 240 | 320 ± 30 | Cc1nccc2c1[nH]c1cc(OCCNC(=O)/C=C/c3ccc(Cl)cc3)ccc12 [6e, (E)-3-(4-chlorophenyl)-N-(2-((1-methyl-9H-pyrido[3,4-b]indol-7-yl)oxy)ethyl)acrylamide] | 7720 ± 3040 | 24 | – | – | – |
| 19500 ± 11800 | 6780 ± 720 | C/C(=C\c1ccccc1)C(=O)NCCOc1ccc2c(c1)[nH]c1c(C)nccc12 [6h, (E)-2-methyl-N-(2-((1-methyl-9H-pyrido[3,4-b]indol-7-yl)oxy)ethyl)-3-phenylacrylamide] | 61300 ± 2750 | 9 | – | – | – |
| 5010 ± 830 | 2750 ± 1600 | Cc1nccc2c1[nH]c1cc(OCCNC(=O)/C=C/c3cccc(F)c3)ccc12 [6b, (E)-3-(3-fluorophenyl)-N-(2-((1-methyl-9H-pyrido[3,4-b]indol-7-yl)oxy)ethyl)acrylamide] | 12900 ± 3310 | 5 | – | – | – |
| 3920 ± 1350 | 930 ± 280 | Cc1nccc2c1[nH]c1cc(OCCNC(=O)/C=C/c3ccccc3F)ccc12 [6g, (E)-3-(2-fluorophenyl)-N-(2-((1-methyl-9H-pyrido[3,4-b]indol-7-yl)oxy)ethyl)acrylamide] | 16200 ± 1860 | 17 | – | – | – |
| 1090 ± 490 | 210 ± 140 | COc1ccc(/C=C/C(=O)NCCOc2ccc3c(c2)[nH]c2c(C)nccc23)cc1 [6f, (E)-3-(4-methoxyphenyl)-N-(2-((1-methyl-9H-pyrido[3,4-b]indol-7-yl)oxy)ethyl)acrylamide] | 10500 ± 430 | 50 | – | – | – |
| 690 ± 180 | 150 ± 60 | Cc1nccc2c1[nH]c1cc(OCCNC(=O)/C=C/c3ccc(F)cc3)ccc12 [6d, (E)-3-(4-fluorophenyl)-N-(2-((1-methyl-9H-pyrido[3,4-b]indol-7-yl)oxy)ethyl)acrylamide] | 7630 ± 2470 | 51 | – | – | – |
| 480 ± 280 | 370 ± 220 | Cc1nccc2c1[nH]c1cc(OCCNC(=O)/C=C/c3cccc(Br)c3)ccc12 [6c, (E)-3-(3-bromophenyl)-N-(2-((1-methyl-9H-pyrido[3,4-b]indol-7-yl)oxy)ethyl)acrylamide] | 6110 ± 2070 | 16 | – | – | – |
